{
  "source": "patent US20120065267A1",
  "about": "“COMPOSITIONS INCLUDING 3,5-L-T2 AND METHODS OF USE THEREOF” (priority 2010, published 2012)",
  "origin": "cited, not measured here",
  "key": {"TR α1, β1 and β2": {"test_system": "TR α1, β1 and β2", "conditions": "in vitro; cited from earlier work"}, "[1]": {"test_system": "hypercholesterolemic patients", "conditions": "cited from earlier work"}},
  "note": "Read-outs that look alike come from different tables or passages of the source.",
  "data": [
    {"smiles": "N[C@@H](Cc1cc(I)c(Oc2ccc(O)c(I)c2)c(I)c1)C(=O)O", "note": "[T3, (2S)-2-amino-3-[4-(4-hydroxy-3-iodophenoxy)-3,5-diiodophenyl]propanoic acid]", "values": [
      {"measurement": "binding affinity relative to that of T2", "setting": "TR α1, β1 and β2", "result": "40-500 fold"}
    ]},
    {"smiles": "N[C@H](Cc1cc(I)c(Oc2ccc(O)cc2)c(I)c1)C(=O)O", "note": "[3,5-D-T2]", "values": [
      {"measurement": "patients with coronary artery disease experiencing increased anginal symptoms", "setting": "[1]; 300 mg daily for 8 months", "result": "7 of 13"},
      {"measurement": "patients with coronary artery disease who died suddenly from presumed myocardial infarction", "setting": "[1]; 300 mg daily for 8 months", "result": "2 of the 13"},
      {"measurement": "decrease in total serum cholesterol", "setting": "[1]; 300 mg daily, at 20 weeks", "result": 20, "unit": "%"},
      {"measurement": "mean heart rate on treatment", "setting": "[1]; 300 mg daily, increase from 76", "result": 88, "unit": "beats per minute"},
      {"measurement": "efficacy at lower doses", "setting": "[1]; doses of less than 250 mg/day", "result": "ineffective"},
      {"measurement": "decrease in body weight", "setting": "[1]; euthyroid subjects, 300 mg daily for 8 months", "result": 5, "unit": "%"},
      {"measurement": "decrease in body weight", "setting": "[1]; hypothyroid patients, 300 mg daily for 8 months", "result": 8, "unit": "%"}
    ]}
  ]
}
